Reference: US20170173186A9, “MURINE WOUND MODEL FOR TESTING PATHOGEN VIRUENCE AND THERAPEUTIC EFFICACY” (priority 2013, published 2017)
Converted amounts (≈) assume the structure as drawn.

How the values were obtained:
[1] = tested on: A. baumannii AB5075; test: Murine dorsal wound infection model (neutropenic BALB/c mice), wound area measurement and gross pathology; type: in vivo, Acinetobacter baumannii
[2] = tested on: A. baumannii AB5075; test: Murine dorsal wound infection model, percent weight change; type: in vivo, Acinetobacter baumannii; conditions: for median loss of infection-day body weight: Day 1 post-infection; for maximal median loss of infection-day body weight: maximal loss over days 1 through 6 post-infection; for duration of significantly less weight loss than placebo: post-infection, Kruskal-Wallis test followed by Dunn's post-test
Description: All procedures were performed in accordance with protocol IB02-10 that was approved by the Walter Reed Army Institute of Research (WRAIR)/Navy Medical Research Center (NMRC) Institutional Animal Care and Use Committee (Silver Spring, Md.). Mice received 150 mg/kg and 100 mg/kg cyclophosphamide intraperitoneal (IP) injections, before wounding and infection, on days −4 and −1, respectively (22, 24). On Day 0, the day of wounding and inoculum, mice were anesthetized with ketamine 130 mg/kg (KETASET®, Fort Dodge Animal Health, Fort Dodge, Iowa), xylazine 10 mg/kg (ANASED®, Lloyd Inc. Shenandoah, Iowa), and buprenorphine 0.05 mg/kg (Hospira Inc., Lake Forest, Ill.) injections. Hair was clipped from the cervical to mid-lumbar dorsum, and the skin scrubbed with iodine solution followed by an ethanol rinse. A 6.0 mm disposable skin biopsy punch (VisiPunch, Huot Instruments, LLC, Menomonee Falls, Wis.) was used to create a full-thickness skin defect overlying thoracic spinal column and the adjacent musculature. Twenty-five μL containing 5.0×10^4 AB5075 cells in a PBS suspension were pipetted into the wound, and allowed to absorb for three minutes. A circular cutout (30 mm diameter) of transparent dressing (TEGADERM™Roll, 3M Health Care, St. Paul, Minn.) was placed over the wound and secured with tissue adhesive (VETBOND™, 3M Animal Care, St. Paul, Minn.). […] However, the size of the wound was increased to 6 mm in order to facilitate subsequent punch biopsies to measure bacterial burden in the wound tissue.
(§1) Beginning four hours post-inoculation, mice were treated with either rifampin at 25 mg/kg IP injection once daily, doxycycline 25 mg/kg IP injection twice daily, or an equivalent vehicle control over the course of a six day treatment period (25, 26). On Day 7 the transparent dressing was removed, treatment discontinued, and the wound monitored for closure through Day 25.
All statistical analyses were carried out using Graphpad Prism software. […] CFU burdens were compared via the Kruskal-Wallis test followed by Dunn's multiple comparison tests. All results were considered significant if p<0.05.

[3] = tested on: A. baumannii AB5075; test: Murine dorsal wound infection model, CFU burden in wound tissue (4 mm biopsy punch); type: in vivo, Acinetobacter baumannii
[4] = tested on: A. baumannii AB5075; test: Murine dorsal wound infection model, PNA-FISH examination of AB5075 localization in wound tissue; type: in vivo, Acinetobacter baumannii; conditions: Day 1
Description: All procedures were performed in accordance with protocol IB02-10 that was approved by the Walter Reed Army Institute of Research (WRAIR)/Navy Medical Research Center (NMRC) Institutional Animal Care and Use Committee (Silver Spring, Md.). Mice received 150 mg/kg and 100 mg/kg cyclophosphamide intraperitoneal (IP) injections, before wounding and infection, on days −4 and −1, respectively (22, 24). On Day 0, the day of wounding and inoculum, mice were anesthetized with ketamine 130 mg/kg (KETASET®, Fort Dodge Animal Health, Fort Dodge, Iowa), xylazine 10 mg/kg (ANASED®, Lloyd Inc. Shenandoah, Iowa), and buprenorphine 0.05 mg/kg (Hospira Inc., Lake Forest, Ill.) injections. […]
as §1
One mouse from each treatment group (placebo, rifampin, and doxycycline) and from representative time points (Days 1, 3, and 7) were sacrificed in order to characterize the dissemination of AB5075 within wound tissue via peptide nucleic acid fluorescence in situ hybridization (PNA-FISH) (33). […]

[5] = tested on: A. baumannii AB5075; test: Murine dorsal wound infection model, SEM analysis of biofilm on occlusive dressings and wound tissue; type: in vivo, Acinetobacter baumannii
[6] = tested on: A. baumannii AB5075; test: Murine dorsal wound infection model, time course histopathology of wounds (H&E); type: in vivo, Acinetobacter baumannii
[7] = tested on: A. baumannii AB5075; conditions: cited from earlier work
[8] = Day 3 post-infection, BALB/c mice, IP treatment from 4 h post-inoculation (rifampin 25 mg/kg once daily, doxycycline 25 mg/kg twice daily)
[9] = Day 8 post-infection, one day after occlusive dressing removed, six day IP treatment
[10] = Day 15 post-infection, six day IP treatment
[11] = Day 21 post-infection, six day IP treatment

Structure (SMILES)	median wound size [1, 8]	median wound size [1, 9]	median wound size [1, 10]	median wound size [1, 11]	median loss of infection-day body weight [2]	maximal median loss of infection-day body weight [2]	duration of significantly less weight loss than placebo [2]	median CFU burden ([3]; 3 days post-infection)	median CFU burden ([3]; Day 7 post-infection)	median CFU burden ([3]; after 24 hours of infection)	reduction of median CFU burden versus placebo ([3]; after 24 hours of infection)	A. baumannii cells in wound bed by Acinetobacter-specific PNA probe [4]	biofilm on occlusive dressing by SEM ([5]; Day 3 (rifampin: Days 3 or 7) post-infection)	bacteria on occlusive dressing by SEM ([5]; one day post-infection)	histopathology of wound (H&E) ([6]; Day 15)	histopathology of wound (H&E) ([6]; Day 23)	MIC [7]
CO[C@H]1/C=C/O[C@@]2(C)Oc3c(C)c(O)c4c(O)c(c(/C=N/N5CCN(C)CC5)c(O)c4c3C2=O)NC(=O)/C(C)=C\C=C\[C@H](C)[C@H](O)[C@@H](C)[C@@H](O)[C@@H](C)[C@H](OC(C)=O)[C@@H]1C [rifampin]	35.0 mm^2	34.5 mm^2	5.5 mm^2	0.0 mm^2	6.7%	6.8%	5 days	4.7×10^4 CFU per 4 mm tissue biopsy punch	6.1×10^5 CFU per 4 mm tissue biopsy punch	5.7×10^5 CFU per 4 mm tissue biopsy punch	1 log	clearance of A. baumannii cells below the level of detection at all levels of the wound bed	no biofilm formation was observed on dressings	no substantial amount of bacteria observed on the dressing	re-epithelization over the wound was observed	signs of contractile healing and re-epithelized wound beds	4.0 µg/mL (≈ 4.86 µM)
C[C@H]1c2cccc(O)c2C(=O)C2=C(O)[C@]3(O)C(=O)C(C(N)=O)=C(O)[C@@H](N(C)C)[C@@H]3[C@@H](O)[C@@H]21 [doxycycline]	31.0 mm^2	29.0 mm^2	2.0 mm^2	0.0 mm^2	5.3%	11.8%	4 days	5.0×10^4 CFU per 4 mm tissue biopsy punch	6.2×10^5 CFU per 4 mm tissue biopsy punch	5.9×10^5 CFU per 4 mm tissue biopsy punch	–	–	–	–	–	–	–
